From the NIST ThermoML archive (doi:10.1021/acs.jced.7b01033)
± gives the expanded uncertainty stated by the source.

Columns and labels:
[1] = 100.5 kPa, Liquid, Vibrating tube method
[2] = xn = mol fraction of the nth substance listed; conditions: 100.5 kPa, Liquid, Vibrating tube method

Structure (SMILES): CCCCCCn1cc[n+](C)c1C.O=S(=O)([N-]S(=O)(=O)C(F)(F)F)C(F)(F)F
- mass density ([1]; 293.15 K): 1362.2 ± 2.1 kg/m3
- mass density ([1]; 303.15 K): 1353.1 ± 2.1 kg/m3
- mass density ([1]; 313.15 K): 1344.1 ± 2.1 kg/m3
- mass density ([1]; 323.15 K): 1335.2 ± 2.1 kg/m3
- mass density ([1]; 333.15 K): 1326.3 ± 2.1 kg/m3
- mass density ([1]; 343.15 K): 1317.5 ± 2.1 kg/m3
- mass density ([1]; 353.15 K): 1308.7 ± 2.1 kg/m3

Structure (SMILES): CCCCn1cc[n+](C)c1C.O=S(=O)([N-]S(=O)(=O)C(F)(F)F)C(F)(F)F
- mass density ([1]; 293.15 K): 1424 ± 2.1 kg/m3
- mass density ([1]; 303.15 K): 1414.6 ± 2.1 kg/m3
- mass density ([1]; 313.15 K): 1405.3 ± 2.1 kg/m3
- mass density ([1]; 323.15 K): 1396 ± 2.1 kg/m3
- mass density ([1]; 333.15 K): 1386.9 ± 2.1 kg/m3
- mass density ([1]; 343.15 K): 1377.8 ± 2.1 kg/m3
- mass density ([1]; 353.15 K): 1368.7 ± 2.1 kg/m3

Structure (SMILES): CCC[n+]1ccn(C)c1C.O=S(=O)([N-]S(=O)(=O)C(F)(F)F)C(F)(F)F
- mass density ([1]; 293.15 K): 1460 ± 2.1 kg/m3
- mass density ([1]; 303.15 K): 1450.3 ± 2.1 kg/m3
- mass density ([1]; 313.15 K): 1440.7 ± 2.1 kg/m3
- mass density ([1]; 323.15 K): 1431.2 ± 2.1 kg/m3
- mass density ([1]; 333.15 K): 1421.7 ± 2.1 kg/m3
- mass density ([1]; 343.15 K): 1412.4 ± 2.1 kg/m3
- mass density ([1]; 353.15 K): 1403 ± 2.1 kg/m3

Structure (SMILES): CCn1cc[n+](C)c1C.O=S(=O)([N-]S(=O)(=O)C(F)(F)F)C(F)(F)F
- mass density ([1]; 293.15 K): 1496.4 ± 2.1 kg/m3
- mass density ([1]; 303.15 K): 1486.7 ± 2.1 kg/m3
- mass density ([1]; 313.15 K): 1476.9 ± 2.1 kg/m3
- mass density ([1]; 323.15 K): 1467.3 ± 2.1 kg/m3
- mass density ([1]; 333.15 K): 1457.7 ± 2.1 kg/m3
- mass density ([1]; 343.15 K): 1448.2 ± 2.1 kg/m3
- mass density ([1]; 353.15 K): 1438.8 ± 2.1 kg/m3

Structure (SMILES): CCCCCCn1cc(C)[n+](C)c1CC.O=S(=O)([N-]S(=O)(=O)C(F)(F)F)C(F)(F)F + CCCCCC[n+]1c(C)cn(C)c1CC.O=S(=O)([N-]S(=O)(=O)C(F)(F)F)C(F)(F)F
- mass density ([2]; 293.15 K, x1 = 0.813): 1325.2 ± 2.1 kg/m3
- mass density ([2]; 303.15 K, x1 = 0.813): 1316.2 ± 2.1 kg/m3
- mass density ([2]; 313.15 K, x1 = 0.813): 1307.3 ± 2.1 kg/m3
- mass density ([2]; 323.15 K, x1 = 0.813): 1298.5 ± 2 kg/m3
- mass density ([2]; 333.15 K, x1 = 0.813): 1289.7 ± 2 kg/m3
- mass density ([2]; 343.15 K, x1 = 0.813): 1281 ± 2 kg/m3
- mass density ([2]; 353.15 K, x1 = 0.813): 1272.3 ± 2 kg/m3

Structure (SMILES): CCCCCCn1cc(C)[n+](C)c1.O=S(=O)([N-]S(=O)(=O)C(F)(F)F)C(F)(F)F + CCCCCC[n+]1cn(C)cc1C.O=S(=O)([N-]S(=O)(=O)C(F)(F)F)C(F)(F)F
- mass density ([2]; 293.15 K, x1 = 0.637): 1352.5 ± 2.1 kg/m3
- mass density ([2]; 303.15 K, x1 = 0.637): 1343.3 ± 2.1 kg/m3
- mass density ([2]; 313.15 K, x1 = 0.637): 1334.2 ± 2.1 kg/m3
- mass density ([2]; 323.15 K, x1 = 0.637): 1325.2 ± 2.1 kg/m3
- mass density ([2]; 333.15 K, x1 = 0.637): 1316.3 ± 2.1 kg/m3
- mass density ([2]; 343.15 K, x1 = 0.637): 1307.4 ± 2.1 kg/m3
- mass density ([2]; 353.15 K, x1 = 0.637): 1298.5 ± 2 kg/m3

Structure (SMILES): CCCCn1cc(C)[n+](C)c1.O=S(=O)([N-]S(=O)(=O)C(F)(F)F)C(F)(F)F + CCCC[n+]1cn(C)cc1C.O=S(=O)([N-]S(=O)(=O)C(F)(F)F)C(F)(F)F
- mass density ([2]; 313.15 K, x1 = 0.637): 1391.1 ± 2.1 kg/m3
- mass density ([2]; 323.15 K, x1 = 0.637): 1381 ± 2.1 kg/m3
- mass density ([2]; 333.15 K, x1 = 0.637): 1372.3 ± 2.1 kg/m3
- mass density ([2]; 343.15 K, x1 = 0.637): 1363.1 ± 2.1 kg/m3
- mass density ([2]; 353.15 K, x1 = 0.637): 1353.9 ± 2.1 kg/m3

Structure (SMILES): CCCCn1cc(C)[n+](C)c1CC.O=S(=O)([N-]S(=O)(=O)C(F)(F)F)C(F)(F)F + CCCCn1c(C)c[n+](C)c1CC.O=S(=O)([N-]S(=O)(=O)C(F)(F)F)C(F)(F)F
- mass density ([2]; 293.15 K, x1 = 0.806): 1371.2 ± 2.1 kg/m3
- mass density ([2]; 303.15 K, x1 = 0.806): 1361.9 ± 2.1 kg/m3
- mass density ([2]; 313.15 K, x1 = 0.806): 1352.8 ± 2.1 kg/m3
- mass density ([2]; 323.15 K, x1 = 0.806): 1343.7 ± 2.1 kg/m3
- mass density ([2]; 333.15 K, x1 = 0.806): 1334.7 ± 2.1 kg/m3
- mass density ([2]; 343.15 K, x1 = 0.806): 1325.8 ± 2.1 kg/m3
- mass density ([2]; 353.15 K, x1 = 0.806): 1316.9 ± 2.1 kg/m3

Structure (SMILES): CCC[n+]1cc(C)n(C)c1CC.O=S(=O)([N-]S(=O)(=O)C(F)(F)F)C(F)(F)F + CCC[n+]1c(C)cn(C)c1CC.O=S(=O)([N-]S(=O)(=O)C(F)(F)F)C(F)(F)F
- mass density ([2]; 293.15 K, x1 = 0.763): 1401.2 ± 2.1 kg/m3
- mass density ([2]; 303.15 K, x1 = 0.763): 1391.7 ± 2.1 kg/m3
- mass density ([2]; 313.15 K, x1 = 0.763): 1382.3 ± 2.1 kg/m3
- mass density ([2]; 323.15 K, x1 = 0.763): 1373 ± 2.1 kg/m3
- mass density ([2]; 333.15 K, x1 = 0.763): 1363.8 ± 2.1 kg/m3
- mass density ([2]; 343.15 K, x1 = 0.763): 1354.7 ± 2.1 kg/m3
- mass density ([2]; 353.15 K, x1 = 0.763): 1345.5 ± 2.1 kg/m3

Structure (SMILES): CCCn1cc(C)[n+](C)c1.O=S(=O)([N-]S(=O)(=O)C(F)(F)F)C(F)(F)F + CCCn1c[n+](C)cc1C.O=S(=O)([N-]S(=O)(=O)C(F)(F)F)C(F)(F)F
- mass density ([2]; 293.15 K, x1 = 0.629): 1445.4 ± 2.1 kg/m3
- mass density ([2]; 303.15 K, x1 = 0.629): 1435.6 ± 2.1 kg/m3
- mass density ([2]; 313.15 K, x1 = 0.629): 1425.9 ± 2.1 kg/m3
- mass density ([2]; 323.15 K, x1 = 0.629): 1416.3 ± 2.1 kg/m3
- mass density ([2]; 333.15 K, x1 = 0.629): 1406.9 ± 2.1 kg/m3
- mass density ([2]; 343.15 K, x1 = 0.629): 1397.3 ± 2.1 kg/m3
- mass density ([2]; 353.15 K, x1 = 0.629): 1387.9 ± 2.1 kg/m3

Structure (SMILES): CC[n+]1cc(C)n(C)c1.O=S(=O)([N-]S(=O)(=O)C(F)(F)F)C(F)(F)F + CC[n+]1cn(C)cc1C.O=S(=O)([N-]S(=O)(=O)C(F)(F)F)C(F)(F)F
- mass density ([2]; 293.15 K, x1 = 0.602): 1483.2 ± 2.1 kg/m3
- mass density ([2]; 303.15 K, x1 = 0.602): 1473.3 ± 2.1 kg/m3
- mass density ([2]; 313.15 K, x1 = 0.602): 1463.4 ± 2.1 kg/m3
- mass density ([2]; 323.15 K, x1 = 0.602): 1453.6 ± 2.1 kg/m3
- mass density ([2]; 333.15 K, x1 = 0.602): 1443.9 ± 2.1 kg/m3
- mass density ([2]; 343.15 K, x1 = 0.602): 1434.2 ± 2.1 kg/m3
- mass density ([2]; 353.15 K, x1 = 0.602): 1424.6 ± 2.1 kg/m3

Structure (SMILES): CCc1n(C)c(C)c[n+]1CC.O=S(=O)([N-]S(=O)(=O)C(F)(F)F)C(F)(F)F + CCc1n(C)cc(C)[n+]1CC.O=S(=O)([N-]S(=O)(=O)C(F)(F)F)C(F)(F)F
- mass density ([2]; 293.15 K, x1 = 0.735): 1431.7 ± 2.1 kg/m3
- mass density ([2]; 303.15 K, x1 = 0.735): 1422 ± 2.1 kg/m3
- mass density ([2]; 313.15 K, x1 = 0.735): 1412.6 ± 2.1 kg/m3
- mass density ([2]; 323.15 K, x1 = 0.735): 1403.1 ± 2.1 kg/m3
- mass density ([2]; 333.15 K, x1 = 0.735): 1393.8 ± 2.1 kg/m3
- mass density ([2]; 343.15 K, x1 = 0.735): 1384.6 ± 2.1 kg/m3
- mass density ([2]; 353.15 K, x1 = 0.735): 1375.3 ± 2.1 kg/m3
